This is an account of results in US20240082212A1, “USE OF MDMA FOR TREATMENT OF STRESS-RELATED DISORDERS” (priority 2022, published 2024).

Each structure is given as a SMILES string.

One series has as its system C57BL/6J mice. Description: Head twitch response (HTR). It is filed as in vivo, mouse. The conditions noted are these: 10 mg/kg IP, 30 minutes after injection. The protocol:
Male C57BL/6J mice at 6-8 weeks of age were purchased from Jackson Laboratories and housed four per cage in a climate and humidity-controlled room in a vivarium at the University of California, San Diego. The room operated on a reverse light cycle (lights on at 1900 h, off at 0700 h) with food and water available ad libitum, except during testing. All testing was performed during 1000 h and 1800 h. After a minimum of 1 week acclimation to the housing facility, mice were anesthetized using a mixture of ketamine (100 mg/kg IP) and xylazine (10 mg/kg IP). Under deep anesthesia, an incision was made in the scalp and a small neodymium magnet (4.57 mm×4.57 mm×2.03 mm) was attached to the cranium using cyanoacrylate and dental cement. After at least a 2-week recovery period, the mouse was removed from the home cage and injected intraperitoneally with the test article or vehicle (0.9% sterile saline). Immediately, the mouse was placed in a glass cylinder surrounded by a magnetometer coil and the head twitch response (HTR) was assessed for 30 minutes (Halberstadt and Geyer, 2013). The output of the coil was recorded using a Powerlab/8SP with LabChart v.7.3.2 (ADInstruments). Coil voltage was amplified, low-pass filtered (2-10 kHz cut-off frequency) to remove interference, digitized and sampled at 20 kHz. Head twitches were identified using a validated technique based on artificial intelligence (Halberstadt, 2020). Events in the recordings were transformed into a visual representation in the time-frequency domain and deep features were extracted using the pretrained convolutional neural network ResNet-50, and the images were subsequently classified using a Support Vector Machine algorithm.
Test articles (R,S-MDA, R(−)-MDA, S-(+)MDA), R,S-MDMA, R(−)-MDMA and S(+)-MDMA) were supplied by the NIDA Drug Supply Program as neat powders. Racemic MDA and MDMA and their enantiomers were dissolved in saline and injected IP at a volume of 5 mL/kg. Each dose was calculated based on the salt form of the compounds. For each treatment condition, six groups of mice (n=5-6/group) were treated with vehicle or the test drug (0.1, 0.3, 1, 3, or 10 mg/kg) and HTR assessed for 30 minutes immediately following injections. To avoid carryover effects, each treatment condition was performed at least seven days apart. Total number of mice used for the experiment was 63.

Series [1] is described as follows: Rat plasma pharmacokinetics after cumulative (QID) SC injections. The conditions noted are these: for dose dependence of Cmax and AUC0-27 hr: QID SC; for AUC0-27 hr / AUC0-27 hr/Dose / AUCTlast / Cmax / Cmax/Dose / Tlast / Tmax: male rat plasma.
[2] abbreviates: metabolite S-MDA after QID SC S-MDMA, total 5 mg/kg/day.
[3] abbreviates: metabolite after QID SC parent, total 10 mg/kg/day.
The mark [4] stands for this setting: metabolite after QID SC parent, total 20 mg/kg/day.

On to `C[C@H](N)Cc1ccc2c(c1)OCO2` [S-MDA, S(+)-MDA], for which the “head twitch response (HTR) compared to control (vehicle)” value with C57BL/6J mice was “reduction of HTR”. The “dose dependence of Cmax and AUC0-27 hr” value in series [1] (from 5 to 10 mg/kg/day S-MDMA) is “approximately dose proportional manner”. Also, the “dose dependence of Cmax and AUC0-27 hr” value in series [1] (from 5 to 20 mg/kg/day S-MDMA) is on record as “greater than dose proportional manner”. Also, in series [1] (setting [2]), the AUC0-27 hr was 1280 ng·h/mL, the “AUC0-27 hr/Dose” value is recorded as 256 *kg*ng/mL/mg, the AUCTlast came to 1270 ng·h/mL and the Cmax worked out at 342 ng/mL. Further, in series [1] (setting [2]), the Cmax/Dose turned out to be 68.4 kg·ng/mL/mg, the Tlast was determined as 9 h and the Tmax stood at 4 h. For the same compound, the Cmax in series [1] (metabolite after QID SC parent (R-MDA after R-MDMA, S-MDA after S-MDMA, total MDA after Rac-MDMA), total 10 mg/kg/day) amounted to 957 ng/mL. Also, the Cmax in series [1] (metabolite after QID SC parent (R-MDA after R-MDMA, S-MDA after S-MDMA, total MDA after Rac-MDMA), total 20 mg/kg/day) came out at 2500 ng/mL. Moreover, in series [1] (setting [3]), the AUC0-27 hr was 6770 ng·h/mL, the “AUC0-27 hr/Dose” value is reported as 677 *kg*ng/mL/mg, the AUCTlast is 5180 ng·h/mL and the Cmax/Dose is 95.7 kg·ng/mL/mg. Also, in series [1] (setting [3]), the Tlast came out at 11 h and the Tmax was determined as 5 h. Further, in series [1] (setting [4]), the AUC0-27 hr worked out at 26300 ng·h/mL, the “AUC0-27 hr/Dose” value is given as 1320 *kg*ng/mL/mg, the AUCTlast was 26300 ng·h/mL and the Cmax/Dose was found to be 125 kg·ng/mL/mg. In addition, in series [1] (setting [4]), the Tlast was found to be 27 h and the Tmax is 5 h.

In general, Cmax refers to the maximum level reached in the sampled fluid or tissue. In general, Tmax refers to the time from dosing to the highest level.
